Results on five compounds are retold here after ChEMBL document CHEMBL1201862, “PubChem BioAssay data set” (2004).

Active and inactive are the calls of the source.

Test [1] can be described thus: rise of 4N DNA cells, HeLa – IC50, dose response (AID 1117351). The format is functional, cell-based.
The nature of test [2]: cytotoxicity toward Colo320 cells – cell-based, CellTiter-Glo luminescence, IC50, dose response (AID 1117334). The format is functional. The settings on record: COLO 320.
Test [3] is described as follows: rise of 2N DNA cells, HeLa – IC50, dose response (AID 1117349). The format is functional, cell-based.
Test [4] can be described thus: Reduced DLD-1 viability, concentration-response, CellTiter-Glo luminescence (AID 1117352). Type of test: functional. Background: ATP-based viability assays read luminescence as a measure of living cells.
A short description of test [5]: cytotoxicity toward HT-29 cells – cell-based, CellTiter-Glo luminescence, IC50, dose response (AID 1117330). The format is functional.
Test [6] in a line: cytotoxicity toward HCT116 cells – cell-based, CellTiter-Glo luminescence, IC50, dose response (AID 1117332). Type of test: functional. Particulars: HCT-116.
Test [7] is described as follows: HCT116 cell viability decrease, GSK3B pretreatment – CellTiter-Glo, IC50, dose response (AID 1117339). The settings on record: HCT-116. The format is functional.
A short description of test [8]: CellTiter-Glo luminescence survival assay, SW480 colon tumor line, concentration-response curve, half-maximal inhibitory concentration (AID 1117338). Type of test: functional.
Test [9] is described as follows: RKO cell viability reduction, dose response, CellTiter-Glo luminescence (AID 1117322). The format is functional.
Test [10] in a line: SNU-C1 cell viability reduction, dose response, CellTiter-Glo luminescence (AID 1117323). Type of test: functional, cell-based.
A short description of test [11]: viability inhibitors of stage V gametocytes – luminescence, dose response (AID 1117278).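 Further: gametocytes exposed to compound for 24 hours.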 Type of test: functional, cell-based.
Test [12] is described as follows: viability loss in human Jurkat cells – cell-based, luminescence, cytotoxicity control for P. falciparum gametocyte viability project, dose response (AID 1117277).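 Further: potency reflects loss of cellular ATP meaning fewer viable cells.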 The format is functional.
Test [13] is described as follows: Late stage results for the probe development effort to identify inhibitors of Plasmodium falciparum gametocytes: Luminescence-based cell-based high throughput dose response assay to identify inhibitors of viability of late stage Plasmodium falciparum gametocytes. The format is functional.
Test [14] is described as follows: growth inhibition of PfATP4-mutant resistant parasites – NITD609-resistant line, SYBR Green, dry powder, dose response (AID 1159571).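 Further: parasites synchronized at ring stage by sorbitol before testing.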 The format is functional, cell-based.
A short description of test [15]: growth inhibition of yeast DHODH-expressing 3D7 parasites – SYBR Green, dry powder samples, dose response (AID 1159570).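 Further: parasite growth measured after 72 hours of compound exposure.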 Type of test: functional, cell-based.
A short description of test [16]: toxicity to human HepG2 hepatoma cells – cell-based, plate reader, dry powder samples, cytotoxicity control, dose response (AID 1159569).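 Further: inhibitor potency with signal falling toward the positive control level.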 Type of test: functional.
Test [17] is described as follows: Dd2 malaria parasite growth inhibition potency – SYBR Green, dry powder samples, dose response (AID 1159566).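 Further: potency for growth inhibition with lower SYBR green DNA signal.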 The format is functional, cell-based.
Test [18] is described as follows: P. falciparum Dd2 growth inhibitors, dose response, SYBR Green, cherry-picked samples (AID 1159567). Type of test: functional, cell-based.
Test [19] is described as follows: MITF Orthogonal Assay: MALME3 CTG Assay Measured in Cell-Based System Using Plate Reader - 2084-04_Inhibitor_Dose_DryPowder_Activity_Set6. The format is functional. The settings on record: MALME-3.
The nature of test [20]: inhibitors of TRPM1-promoter reporter in SK-MEL-5 – cell-based, luciferase, dry powder, set 9, MITF inhibitor project, dose response (AID 651588). The format is functional.
Test [21] can be described thus: MITF Orthogonal Assay: SK-MEL-5 CTG Assay Measured in Cell-Based System Using Plate Reader - 2084-02_Inhibitor_Dose_DryPowder_Activity_Set7. The format is functional.
Test [22] is described as follows: growth inhibition of SK-MEL-5 melanoma cells – cell-based, CellTiter-Glo luminescence, dry powder, set 8, orthogonal assay for MITF inhibitor project, dose response (AID 651586). The format is functional.
Test [23] is described as follows: growth inhibition of MALME3 cells – cell-based, CellTiter-Glo luminescence, dry powder, set 5, orthogonal assay for MITF inhibitor project, dose response (AID 651584). The settings on record: MALME-3. The format is functional.
Test [24] can be described thus: inhibitors of TRPM1-promoter reporter in SK-MEL-5 – cell-based, luciferase, dry powder, set 8, MITF inhibitor project, dose response (AID 624430). Type of test: functional.
Test [25] is described as follows: MITF: Counter assay: A375 proliferation Measured in Cell-Based System Using Plate Reader - 2084-03_Inhibitor_Dose_DryPowder_Activity_Set8. The format is functional. Particulars: A-375.

What is called IC50 is the concentration needed to halve the response being measured. Turning to `Cc1cc(N)c2ccccc2[n+]1CCCCCCCCCC[n+]1c(C)cc(N)c2ccccc21`, the IC50 in test [1] is > 10 µM (inactive); in [2] it was 15.9 µM (inactive); in test [3] it was > 10 µM (inactive); in [4] it was 5.72 µM (inactive); in test [5], > 20 µM (inactive); in test [6], > 20 µM (inactive). The IC50 in test [7] is > 20 µM (inactive); in [8], 3.83 µM (active); in [9], 2.45 µM (active); in test [10], 1.29 µM (active).

Consider `OCC1(Cc2ccccc2)CCN(Cc2cnc(-c3ccc(Cl)cc3)nc2)CC1`, for which the IC50 is > 109 µM (inactive) in [11] and > 83.3 µM (inactive) in test [12].

For `Cc1cccc(-c2nn(-c3ccccc3)cc2C(=O)Nc2nccs2)c1`, the IC50 in test [13] is > 74.4 µM (inactive).

The term AC50 denotes the concentration giving half of the maximal activity seen. Consider `OC[C@@H]1[C@@H](c2ccccc2)C2(CN(CCC(F)(F)F)C2)N1Cc1ccccc1`, for which the AC50 is 2.36 µM (active) in [14]; 2.89 µM (active) in test [15]; 69.1 µM (active) in test [16]; 2.48 µM (active) in test [17]; 2.27 µM (active) in test [18].

With `CC(C)N1CCN(C2=C(Nc3ccc(F)cc3F)C(=O)c3ccccc3C2=O)CC1`, the AC50 in [19] was 25.4 µM (active); in test [20], 9.91 µM (active); in test [21], 8.73 µM (active); in [22], 59.1 µM (active); in [23], 25.4 µM (active); in [24], 2.16 µM (active). In test [25], the AC50 was > 70 µM (inactive).
